Several values for one entry are separate records, joined by “and”; a condition that tells them apart may be missing. Equal entries are not always repeated. Where two headings read alike, the source gives them in different places.
Tests used:
PCSK9 [1] = target: T1, PCSK9 (Homo sapiens, UniProt Q8NBP7); experiment: Fluorescence polarization competition binding assay (probe: compound of Example 57); settings: 2 μM PCSK9, 50 nM compound of Example 57 as probe, overnight incubation; read-out: FP IC
T1 sequence (Q8NBP7 153-692): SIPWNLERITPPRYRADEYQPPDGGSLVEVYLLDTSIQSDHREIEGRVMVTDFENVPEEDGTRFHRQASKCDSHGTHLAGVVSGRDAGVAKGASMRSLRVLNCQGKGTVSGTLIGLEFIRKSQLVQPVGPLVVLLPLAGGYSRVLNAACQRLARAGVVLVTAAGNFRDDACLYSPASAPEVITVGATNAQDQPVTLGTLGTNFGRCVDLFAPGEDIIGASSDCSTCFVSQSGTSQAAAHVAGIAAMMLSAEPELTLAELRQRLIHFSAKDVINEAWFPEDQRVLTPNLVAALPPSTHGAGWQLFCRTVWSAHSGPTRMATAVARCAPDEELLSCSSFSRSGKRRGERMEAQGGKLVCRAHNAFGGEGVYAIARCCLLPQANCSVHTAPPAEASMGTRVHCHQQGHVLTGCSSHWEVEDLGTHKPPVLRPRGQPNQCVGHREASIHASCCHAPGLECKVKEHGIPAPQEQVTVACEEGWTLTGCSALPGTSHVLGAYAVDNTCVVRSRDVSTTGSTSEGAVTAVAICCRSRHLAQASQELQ
Summary of the method: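 Competition fluorescence-polarization binding: 2 μM PCSK9 with 50 nM fluorescent probe in 20 mM HEPES pH 7.5, 150 mM NaCl, 1 mM CaCl2, 0.005% P-20, incubated with test compound overnight in the dark. Anisotropy read; % inhibition relative to DMSO wells and probe-without-PCSK9 wells.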

PCSK9 [2] = target: T1, PCSK9; experiment: Differential scanning calorimetry (DSC) assay, direct binding / thermal stabilization of PCSK9; settings: Tm(with compound)−Tm(no compound); 2 μM PCSK9, 300 μM test compound
Summary of the method: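 Thermal stabilization of 2 μM PCSK9 with or without 300 μM compound in 25 mM HEPES pH 7.5, 150 mM NaCl, 1 mM CaCl2, 3.75% DMSO. Sample heated 20–80 °C at 200 °C/hr against buffer reference. Protein Tm derived from each thermogram.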

[3] = target: T2, HEK293 cells stably overexpressing PCSK9 (Homo sapiens, UniProt Q8NBP7); experiment: Protein degradation assay (Western Blot/Sally Sue assay); format: cell-based; settings: 24 hrs compound treatment, serum free DMEM
T2 construct: expressed in transfected cells
Protocol: Samples were run on the Sally Simple Western system from ProteinSimple (San Jose, Calif.) using default assay conditions. Briefly, 5×10^4 HEK293 cells stably overexpressing PCSK9 were seeded into Collagen I coated 96 well plates and allowed to recover overnight at 37° C. with 5% CO2. After 24 hrs of compound treatment in serum free DMEM cell culture medium, cells were washed with PBS and lysed in 100 ul RIPA buffer (Teknova) supplemented with protease inhibitors and subsequently mixed with fluorescent standards as per manufacturer's specifications, followed by denaturation at 95° C. for 5 minutes. Anti-PCSK9 mAb antibody (Abbomax, Cat. No. 601-650) was used for PCSK9 detection. The reported DC50 values represent the effective concentration of compound to lower PCSK9 protein levels, pro and mature, by 50%.

[4] = mature PCSK9 protein level lowered by 50%, read-out: PCSK9 DC50 (Mature)
[5] = pro PCSK9 protein level lowered by 50%, read-out: PCSK9 DC50 (Pro)
[6] = mature PCSK9 protein level lowered by 50%
[7] = pro PCSK9 protein level lowered by 50%

| SMILES | IC50 (PCSK9 [1]) | ΔTm at 300 µM (PCSK9 [2]) [°C] | DC50 [3, 4] [nM] | DC50 [3, 5] [nM] | PCSK9 DC50 (Mature) μM [3, 6] | PCSK9 DC50 (Pro) μM [3, 7] |
| --- | --- | --- | --- | --- | --- | --- |
| C[C@]1(CC(=O)Nc2cccnn2)NCCc2cc(OCC3CCCCO3)c(Oc3ccc(Br)c(F)c3)cc21 (stereo partly drawn) [Example 88, 2-((1R)-7-(4-bromo-3-fluorophenoxy)-1-methyl-6-((tetrahydro-2H-pyran-2-yl)methoxy)-1,2,3,4-tetrahydroisoquinolin-1-yl)-N-(pyridazin-3-yl)acetamide] | 1.6 nM | 5.51 |  |  |  |  |
| COc1cccc(NC(=O)C[C@@]2(C)NCCc3cc(OCC4CCCCO4)c(Oc4ccc(-c5ccc(C(=O)O)cc5)c(F)c4)cc32)n1 (stereo partly drawn) [Example 90, 2′-fluoro-4′-(((1R)-1-(2-((6-methoxypyridin-2-yl)amino)-2-oxoethyl)-1-methyl-6-((tetrahydro-2H-pyran-2-yl)methoxy)-1,2,3,4-tetrahydroisoquinolin-7-yl)oxy)-[1,1′-biphenyl]-4-carboxylic acid] | 109 nM | 8.59 |  |  |  |  |
| C[C@]1(CC(=O)Nc2cccnn2)NCCc2cc(OCC3CCCCO3)c(Oc3ccc(-c4ccc(C(=O)O)cc4)c(F)c3)cc21 (stereo partly drawn) [Example 91, 2′-fluoro-4′-(((1R)-1-methyl-1-(2-oxo-2-(pyridazin-3-ylamino)ethyl)-6-((tetrahydro-2H-pyran-2-yl)methoxy)-1,2,3,4-tetrahydroisoquinolin-7-yl)oxy)-[1,1′-biphenyl]-4-carboxylic acid] | 860 nM | 7.19 |  |  |  |  |
| CC(C)Cc1ccc([C@H](C)C(=O)NCCOCCOCCOc2cc3c(cc2Oc2ccc(-c4ccc(C(=O)O)cc4)c(F)c2)[C@@](C)(CC(=O)Nc2nccs2)NCC3)cc1 [Example 93] | 188 nM and 578 nM |  | 4240 | 6180 |  |  |
| C[C@]1(CC(=O)Nc2nccs2)NCCc2cc(OCCOCCOCCNC(=O)CC34CC5CC(CC(C5)C3)C4)c(Oc3ccc(-c4ccc(C(=O)O)cc4)c(F)c3)cc21 [Example 94, 4-(((R)-6-(2-(2-(2-(2-((3r,5r,7r)-adamantan-1-yl)acetamido)ethoxy)ethoxy)ethoxy)-1-methyl-1-(2-oxo-2-(thiazol-2-ylamino)ethyl)-1,2,3,4-tetrahydroisoquinolin-7-yl)oxy)-2′-fluoro-[1,1′-biphenyl]-4-carboxylic acid] | 76.9 nM |  | 8520 | 1360 |  |  |
| CC(C)C[C@H](NC(=O)[C@@H](O)[C@H](N)Cc1ccccc1)C(=O)NCCOCCOCCOc1cc2c(cc1Oc1ccc(-c3ccc(C(=O)O)cc3)c(F)c1)[C@@](C)(CC(=O)Nc1nccs1)NCC2 [Example 95, 4′-(((R)-6-(((11S,14S,15R)-15-amino-14-hydroxy-11-isobutyl-10,13-dioxo-16-phenyl-3,6-dioxa-9,12-diazahexadecyl)oxy)-1-methyl-1-(2-oxo-2-(thiazol-2-ylamino)ethyl)-1,2,3,4-tetrahydroisoquinolin-7-yl)oxy)-2′-fluoro-[1,1′-biphenyl]-4-carboxylic acid] | 107 nM |  |  |  | inactive | Inactive |
| CC(C)Cc1ccc([C@H](C)C(=O)NCCOCCOCCOCCOc2cc3c(cc2Oc2ccc(-c4ccc(C(=O)O)cc4)c(F)c2)[C@@](C)(CC(=O)Nc2nccs2)NCC3)cc1 [Example 98, 2′-fluoro-4′-(((R)-6-(((S)-14-(4-isobutylphenyl)-13-oxo-3,6,9-trioxa-12-azapentadecyl)oxy)-1-methyl-1-(2-oxo-2-(thiazol-2-ylamino)ethyl)-1,2,3,4-tetrahydroisoquinolin-7-yl)oxy)-[1,1′-biphenyl]-4-carboxylic acid] | 260 nM |  | 5070 | 6080 |  |  |
| COC(=O)c1cc(-c2cc3c(cc2OC)CCN[C@]3(C)CC(=O)Nc2nccs2)ccc1F [Example 109, methyl (R)-2-fluoro-5-(6-methoxy-1-methyl-1-(2-oxo-2-(thiazol-2-ylamino)ethyl)-1,2,3,4-tetrahydroisoquinolin-7-yl)benzoate] | 664 nM | 6.02 |  |  |  |  |
| CC1(CC(=O)Nc2nccs2)NCCc2cc(OCC3CCCCO3)c(-c3ccc(F)c(C(=O)O)c3)cc21 (stereo not drawn) [Example 110, 2-fluoro-5-(1-methyl-1-(2-oxo-2-(thiazol-2-ylamino)ethyl)-6-((tetrahydro-2H-pyran-2-yl)methoxy)-1,2,3,4-tetrahydroisoquinolin-7-yl)benzoic acid] | 0.98 nM | 6.7 |  |  |  |  |
| COC(=O)c1cc(-c2cc3c(cc2OCC2CCCCO2)CCNC3(C)CC(=O)Nc2nccs2)ccc1F (stereo not drawn) [Example 111, methyl 2-fluoro-5-(1-methyl-1-(2-oxo-2-(thiazol-2-ylamino)ethyl)-6-((tetrahydro-2H-pyran-2-yl)methoxy)-1,2,3,4-tetrahydroisoquinolin-7-yl)benzoate] | 1.55 nM | 6.27 |  |  |  |  |

Second part, the compound after the results:

| IC50 (PCSK9 [1]) | ΔTm at 300 µM (PCSK9 [2]) [°C] | DC50 [3, 4] [nM] | DC50 [3, 5] [nM] | PCSK9 DC50 (Mature) μM [3, 6] | PCSK9 DC50 (Pro) μM [3, 7] | SMILES |
| --- | --- | --- | --- | --- | --- | --- |
| 1.4 nM | 6.57 |  |  |  |  | COc1cccc(NC(=O)C[C@@]2(C)NCCc3cc(OCC4CCCCO4)c(Oc4ccc(Br)c(F)c4)cc32)n1 (stereo partly drawn) [Example 87, 2-((1R)-7-(4-bromo-3-fluorophenoxy)-1-methyl-6-((tetrahydro-2H-pyran-2-yl)methoxy)-1,2,3,4-tetrahydroisoquinolin-1-yl)-N-(6-methoxypyridin-2-yl)acetamide] |
| 2.76 nM | 5.98 |  |  |  |  | COC(=O)c1ccc(-c2ccc(Oc3cc4c(cc3OCC3CCCCO3)CCN[C@]4(C)CC(=O)Nc3cccc(OC)c3)cc2F)cc1 (stereo partly drawn) [Example 89, methyl 2′-fluoro-4′-(((1R)-1-(2-((3-methoxyphenyl)amino)-2-oxoethyl)-1-methyl-6-((tetrahydro-2H-pyran-2-yl)methoxy)-1,2,3,4-tetrahydroisoquinolin-7-yl)oxy)-[1,1′-biphenyl]-4-carboxylate] |
| 958 nM | 7.28 |  |  |  |  | C[C@]1(CC(=O)Nc2cccc3[nH]ccc23)NCCc2cc(OCC3CCCCO3)c(Oc3ccc(-c4ccc(C(=O)O)cc4)c(F)c3)cc21 (stereo partly drawn) [Example 92, 4′-(((1R)-1-(2-((1H-indol-4-yl)amino)-2-oxoethyl)-1-methyl-6-((tetrahydro-2H-pyran-2-yl)methoxy)-1,2,3,4-tetrahydroisoquinolin-7-yl)oxy)-2′-fluoro-[1,1′-biphenyl]-4-carboxylic acid] |
| 110 nM |  | 1050 | 6550 |  |  | C[C@]1(CC(=O)Nc2nccs2)NCCc2cc(OCCOCCOCCOCCNC(=O)CC34CC5CC(CC(C5)C3)C4)c(Oc3ccc(-c4ccc(C(=O)O)cc4)c(F)c3)cc21 [Example 96] |
| 130 nM |  |  |  | inactive | Inactive | CC(C)C[C@H](NC(=O)[C@@H](O)[C@H](N)Cc1ccccc1)C(=O)NCCOCCOCCOCCOc1cc2c(cc1Oc1ccc(-c3ccc(C(=O)O)cc3)c(F)c1)[C@@](C)(CC(=O)Nc1nccs1)NCC2 [Example 97, 4′-(((R)-6-(((14S,17S,18R)-18-amino-17-hydroxy-14-isobutyl-13,16-dioxo-19-phenyl-3,6,9-trioxa-12,15-diazanonadecyl)oxy)-1-methyl-1-(2-oxo-2-(thiazol-2-ylamino)ethyl)-1,2,3,4-tetrahydroisoquinolin-7-yl)oxy)-2′-fluoro-[1,1′-biphenyl]-4-carboxylic acid] |

Reference: patent US11008313B2, “Substituted 1-methyl-1,2,3,4-tetrahydroisoquinoline molecules as PCSK9 allosteric binders” (Merck Sharp & Dohme Corp., priority 2016, dated 2021)
